# Reference: patent US10562908B2, “Ortho substituted phenylpyrazolo- and phenylpyrrolo-pyridazine derivatives having multimodal activity against pain” (priority 2016, dated 2020)
# Like-named read-outs stand apart in the source and are kept apart here.
# What was measured:
# human μ-opioid receptor = biological target: T1, human μ-opioid receptor (Homo sapiens, UniProt P35372); assay: Human μ-opioid receptor radioligand assay ([3H]-DAMGO); assay type: binding
# T1 construct: expressed in transfected cells; host or cells: CHO-K1
# T1 sequence (P35372 whole entry): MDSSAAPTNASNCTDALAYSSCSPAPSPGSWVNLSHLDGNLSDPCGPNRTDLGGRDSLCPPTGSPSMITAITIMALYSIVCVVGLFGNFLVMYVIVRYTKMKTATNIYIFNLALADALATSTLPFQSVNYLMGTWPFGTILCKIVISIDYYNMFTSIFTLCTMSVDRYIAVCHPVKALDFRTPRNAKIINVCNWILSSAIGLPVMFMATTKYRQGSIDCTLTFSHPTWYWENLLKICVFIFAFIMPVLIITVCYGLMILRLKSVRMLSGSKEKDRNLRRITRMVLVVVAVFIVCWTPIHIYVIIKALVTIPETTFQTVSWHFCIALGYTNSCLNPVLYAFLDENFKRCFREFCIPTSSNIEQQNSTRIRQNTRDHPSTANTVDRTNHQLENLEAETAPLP
# Description: Human μ-Opioid Receptor Radioligand Assay
# To investigate binding properties of test compounds to human μ-opioid receptor, transfected CHO-K1 cell membranes and [^3H]-DAMGO (Perkin Elmer, ES-542-C), as the radioligand, were used. The assay was carried out with 20 μg of membrane suspension, 1 nM of [^3H]-DAMGO in either absence or presence of either buffer or 10 μM Naloxone for total and non-specific binding, respectively. Binding buffer contained Tris-HCl 50 mM, MgCl2 5 mM at pH 7.4. Plates were incubated at 27° C. for 60 minutes. After the incubation period, the reaction mix was then transferred to MultiScreen HTS, FC plates (Millipore), filtered and plates were washed 3 times with ice-cold 10 mM Tris-HCL (pH 7.4). Filters were dried and counted at approximately 40% efficiency in a MicroBeta scintillation counter (Perkin-Elmer) using EcoScint liquid scintillation cocktail, preferably, transfected CHO-K1 cell membranes (20 μg) were incubated with 1 nM of [^3H]-DAMGO in assay buffer containing Tris-HCl 50 mM, MgCl2 5 mM at pH 7.4. NBS (non-specific binding) was measured by adding 10 μM Naloxone. The binding of the test compound was measured at five different concentrations. Plates were incubated at 27° C. for 60 minutes. After the incubation period, the reaction mix was then transferred to MultiScreen HTS, FC plates (Millipore), filtered and plates were washed 3 times with ice-cold 10 mM Tris-HCL (pH 7.4). Filters were dried and counted at approximately 40% efficiency in a MicroBeta scintillation counter (Perkin-Elmer) using EcoScint liquid scintillation cocktail.
# [1] = biological target: Human α2δ-1 subunit of Cav2.2 calcium channel (Homo sapiens, UniProt P54289); assay: Human α2δ-1 subunit of Cav2.2 calcium channel assay ([3H]-Gabapentin); assay type: binding
# Human α2δ-1 subunit of Cav2.2 calcium channel, sequence (P54289 25-1103): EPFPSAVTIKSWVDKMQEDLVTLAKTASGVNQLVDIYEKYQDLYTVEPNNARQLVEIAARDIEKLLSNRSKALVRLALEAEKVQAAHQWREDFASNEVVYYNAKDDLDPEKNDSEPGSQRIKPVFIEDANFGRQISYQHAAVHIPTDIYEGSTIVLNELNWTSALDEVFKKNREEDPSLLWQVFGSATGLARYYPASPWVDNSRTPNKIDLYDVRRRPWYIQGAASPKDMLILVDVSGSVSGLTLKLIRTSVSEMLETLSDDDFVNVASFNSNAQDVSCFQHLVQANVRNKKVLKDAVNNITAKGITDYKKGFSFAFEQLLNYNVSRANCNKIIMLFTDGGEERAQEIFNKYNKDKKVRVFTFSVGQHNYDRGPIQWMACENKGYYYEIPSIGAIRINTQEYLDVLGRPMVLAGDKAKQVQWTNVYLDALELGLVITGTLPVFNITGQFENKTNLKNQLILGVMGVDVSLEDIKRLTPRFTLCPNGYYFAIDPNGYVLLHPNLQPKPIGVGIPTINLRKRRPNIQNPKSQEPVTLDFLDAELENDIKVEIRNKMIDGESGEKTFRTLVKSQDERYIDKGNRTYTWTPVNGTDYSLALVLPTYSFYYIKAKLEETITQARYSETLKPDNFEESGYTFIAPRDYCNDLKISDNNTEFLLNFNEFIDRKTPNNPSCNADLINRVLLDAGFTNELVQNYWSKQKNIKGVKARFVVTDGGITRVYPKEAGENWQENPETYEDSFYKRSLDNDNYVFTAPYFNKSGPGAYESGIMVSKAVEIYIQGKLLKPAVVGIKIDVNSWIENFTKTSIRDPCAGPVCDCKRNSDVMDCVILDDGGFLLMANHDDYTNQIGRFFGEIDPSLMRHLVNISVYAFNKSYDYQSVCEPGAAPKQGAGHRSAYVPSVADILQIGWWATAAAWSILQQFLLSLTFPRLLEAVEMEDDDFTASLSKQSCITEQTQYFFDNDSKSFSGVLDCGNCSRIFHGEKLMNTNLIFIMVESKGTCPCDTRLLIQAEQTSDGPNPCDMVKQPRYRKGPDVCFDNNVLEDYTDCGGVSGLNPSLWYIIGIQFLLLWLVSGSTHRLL
# Description: Human α2δ-1 Subunit of Cav2.2 Calcium Channel Assay
# Human α2δ-1 enriched membranes (2.5 μg) were incubated with 15 nM of radiolabeled [3H]-Gabapentin in assay buffer containing Hepes-KOH 10 mM, pH 7.4. NSB (non specific binding) was measured by adding 10 μM pregabalin. After 60 min incubation at 27° C., binding reaction was terminated by filtering through Multiscreen GF/C (Millipore) presoaked in 0.5% polyethyleneimine in Vacuum Manifold Station, followed by 3 washes with ice-cold filtration buffer containing 50 mM Tris-HCl, pH 7.4. Filter plates were dried at 60° C. for 1 hour and 30 μl of scintillation cocktail were added to each well before radioactivity reading. Readings were performed in a Trilux 1450 Microbeta radioactive counter (Perkin Elmer), i.e. Human α2δ-1 enriched membranes (2.5 μg) were incubated with 15 nM of radiolabeled [3H]-Gabapentin in assay buffer containing Hepes-KOH 10 mM, pH 7.4. NSB (non specific binding) was measured by adding 10 μM pregabalin. The binding of the test compound was measured at five different concentrations. After 60 min incubation at 27° C., binding reaction was terminated by filtering through Multiscreen GF/C (Millipore) presoaked in 0.5% polyethyleneimine in Vacuum Manifold Station, followed by 3 washes with ice-cold filtration buffer containing 50 mM Tris-HCl, pH 7.4. Filter plates were dried at 60° C. for 1 hour and 30 μl of scintillation cocktail were added to each well before radioactivity reading. Readings were performed in a Trilux 1450 Microbeta radioactive counter (Perkin Elmer).
# [2] = transfected CHO-K1 cell membranes, 1 nM [3H]-DAMGO, read-out: Binding μ (Ki)
# [3] = human α2δ-1 enriched membranes, 15 nM [3H]-Gabapentin, read-out: Binding α2δ-1 (Ki)
SMILES,Ki (human μ-opioid receptor; [2]) [nM],"Ki [1, 3] [nM]",Ki (human μ-opioid receptor) [nM],Ki [1] [nM]
"CCNCCC(Oc1ccccc1-n1nc2c(N(C)C)nnc(C)c2c1C)c1ccccc1 (stereo not shown) [Example 1, 2-(2-(3-(Ethylamino)-1-phenylpropoxy)phenyl)-N,N,3,4-tetramethyl-2H-pyrazolo[3,4-d]pyridazin-7-amine]",,,100 to 500,500 to 5000
"Cc1nnc(N(C)C)c2nn(-c3ccccc3OCCN3CCCC3)c(C)c12 [Example 2, N,N,3,4-tetramethyl-2-(2-(2-(pyrrolidin-1-yl)ethoxy)phenyl)-2H-pyrazolo[3,4-d]pyridazin-7-amine]",> 500,> 5000,,
"Cc1nnc(N(C)C)c2nn(-c3ccccc3OCC3CCNCC3)c(C)c12 [Example 3, N,N,3,4-tetramethyl-2-(2-(piperidin-4-ylmethoxy)phenyl)-2H-pyrazolo[3,4-d]pyridazin-7-amine]",> 500,> 5000,,
"Cc1nnc(N(C)C)c2nn(-c3ccccc3OCC3CCCNC3)c(C)c12 (stereo not shown) [Example 5, N,N,3,4-tetramethyl-2-(2-(piperidin-3-ylmethoxy)phenyl)-2H-pyrazolo[3,4-d]pyridazin-7-amine]",> 500,500 to 5000,,
"CNCCC(Oc1ccccc1-n1nc2c(N(C)C)nnc(C)c2c1C)c1ccccc1 (stereo not shown) [Example 6, N,N,3,4-tetramethyl-2-(2-(3-(methylamino)-1-phenylpropoxy)phenyl)-2H-pyrazolo[3,4-d]pyridazin-7-amine]",,,100 to 500,500 to 5000
"CNCCC(Oc1ccccc1-n1nc2c(Nc3ccccc3)nnc(C)c2c1C)c1ccccc1 (stereo not shown) [Example 9, 3,4-dimethyl-2-(2-(3-(methylamino)-1-phenylpropoxy)phenyl)-N-phenyl-2H-pyrazolo[3,4-d]pyridazin-7-amine]",,,100 to 500,> 5000
"Cc1nnc(N(C)C)c2nn(-c3ccccc3OC3CCNCC3)c(C)c12 [Example 13, N,N,3,4-tetramethyl-2-(2-(piperidin-4-yloxy)phenyl)-2H-pyrazolo[3,4-d]pyridazin-7-amine]",> 500,> 5000,,
"CNCCC(Oc1ccccc1-n1nc2c(N(C)C)nnc(C)c2c1C)C1CCOCC1 (stereo not shown) [Example 16, N,N,3,4-tetramethyl-2-(2-(3-(methylamino)-1-(tetrahydro-2H-pyran-4-yl)propoxy)phenyl)-2H-pyrazolo[3,4-d]pyridazin-7-amine]",> 500,> 5000,,
"Cc1nnc(N(C)C)c2nn(-c3ccccc3OC(CCNCC3CC3)c3ccccc3)c(C)c12 (stereo not shown) [Example 20, 2-(2-(3-((cyclopropylmethyl)amino)-1-phenylpropoxy)phenyl)-N,N,3,4-tetramethyl-2H-pyrazolo[3,4-d]pyridazin-7-amine]",,,100 to 500,500 to 5000
"CNCCC(Oc1ccccc1-n1nc2c(N3CCOCC3)nnc(C)c2c1C)c1ccccc1 (stereo not shown) [Example 23, 3-(2-(3,4-dimethyl-7-morpholino-2H-pyrazolo[3,4-d]pyridazin-2-yl)phenoxy)-N-methyl-3-phenylpropan-1-amine]",> 500,500 to 5000,,
"CCCNCCC(Oc1ccccc1-n1nc2c(N(C)C)nnc(C)c2c1C)c1ccccc1 (stereo not shown) [Example 24, N,N,3,4-tetramethyl-2-(2-(1-phenyl-3-(propylamino)propoxy)phenyl)-2H-pyrazolo[3,4-d]pyridazin-7-amine]",,,100 to 500,500 to 5000

# The next lines start with results.
Ki (human μ-opioid receptor; [2]) [nM],"Ki [1, 3] [nM]",SMILES,Ki (human μ-opioid receptor) [nM],Ki [1] [nM]
> 500,500 to 5000,"CNCCCOc1ccccc1-n1nc2c(N(C)C)nnc(C)c2c1C [Example 4, N,N,3,4-tetramethyl-2-(2-(3-(methylamino)propoxy)phenyl)-2H-pyrazolo[3,4-d]pyridazin-7-amine]",,
> 500,500 to 5000,"CNCCC(Oc1ccccc1-n1nc2c(NCc3ccccc3)nnc(C)c2c1C)c1ccccc1 (stereo not shown) [Example 7, N-benzyl-3,4-dimethyl-2-(2-(3-(methylamino)-1-phenylpropoxy)phenyl)-2H-pyrazolo[3,4-d]pyridazin-7-amine]",,
> 500,500 to 5000,"Cc1nnc(N(C)C)c2nn(-c3ccccc3OC3CCN(Cc4ccccc4)C3)c(C)c12 (stereo not shown) [Example 8, 2-(2-((1-benzylpyrrolidin-3-yl)oxy)phenyl)-N,N,3,4-tetramethyl-2H-pyrazolo[3,4-d]pyridazin-7-amine]",,
> 500,500 to 5000,"CNCCC(C)Oc1ccccc1-n1nc2c(N(C)C)nnc(C)c2c1C (stereo not shown) [Example 10, N,N,3,4-tetramethyl-2-(2-((4-(methylamino)butan-2-yl)oxy)phenyl)-2H-pyrazolo[3,4-d]pyridazin-7-amine]",,
> 500,500 to 5000,"Cc1nnc(N(C)C)c2nn(-c3ccccc3OC(c3ccccc3)C3CCNCC3)c(C)c12 (stereo not shown) [Example 11, N,N,3,4-tetramethyl-2-(2-(phenyl(piperidin-4-yl)methoxy)phenyl)-2H-pyrazolo[3,4-d]pyridazin-7-amine]",,
> 500,500 to 5000,"Cc1nnc(N(C)C)c2nn(-c3ccccc3OC(C)CCNCc3ccccc3)c(C)c12 (stereo not shown) [Example 12, 2-(2-((4-(benzylamino)butan-2-yl)oxy)phenyl)-N,N,3,4-tetramethyl-2H-pyrazolo[3,4-d]pyridazin-7-amine]",,
> 500,500 to 5000,"CNCCC(Oc1ccccc1-n1nc2c(N(C)C)nnc(C)c2c1C)c1cccc(C#N)c1 (stereo not shown) [Example 14, 3-(1-(2-(7-(dimethylamino)-3,4-dimethyl-2H-pyrazolo[3,4-d]pyridazin-2-yl)phenoxy)-3-(methylamino)propyl)benzonitrile]",,
> 500,500 to 5000,"CNCCC(Oc1ccccc1-n1nc2c(N(C)C)nnc(C)c2c1C)c1ccc(C#N)cc1 (stereo not shown) [Example 15, 4-(1-(2-(7-(dimethylamino)-3,4-dimethyl-2H-pyrazolo[3,4-d]pyridazin-2-yl)phenoxy)-3-(methylamino)propyl)benzonitrile]",,
> 500,500 to 5000,"Cc1nnc(N(C)C)c2nn(-c3ccccc3OCC(N)c3ccccc3)c(C)c12 (stereo not shown) [Example 17, 2-(2-(2-amino-2-phenylethoxy)phenyl)-N,N,3,4-tetramethyl-2H-pyrazolo[3,4-d]pyridazin-7-amine]",,
> 500,500 to 5000,"CNCCC(Oc1ccccc1-n1nc2c(N(C)C)nnc(C)c2c1C)c1ccccn1 (stereo not shown) [Example 18, N,N,3,4-tetramethyl-2-(2-(3-(methylamino)-1-(pyridin-2-yl)propoxy)phenyl)-2H-pyrazolo[3,4-d]pyridazin-7-amine]",,
> 500,500 to 5000,"CNCCC(Oc1ccccc1-n1nc2c(N(C)C)nnc(C)c2c1C)c1ccncc1 (stereo not shown) [Example 19, N,N,3,4-tetramethyl-2-(2-(3-(methylamino)-1-(pyridin-4-yl)propoxy)phenyl)-2H-pyrazolo[3,4-d]pyridazin-7-amine]",,
> 500,500 to 5000,"CNCCC(Oc1ccccc1-n1nc2c(N(C)C)nnc(C)c2c1C)c1cccnc1 (stereo not shown) [Example 21, N,N,3,4-tetramethyl-2-(2-(3-(methylamino)-1-(pyridin-3-yl)propoxy)phenyl)-2H-pyrazolo[3,4-d]pyridazin-7-amine]",,
> 500,500 to 5000,"Cc1nnc(N(C)C)c2nn(-c3ccccc3OCCC(N)c3ccccc3)c(C)c12 (stereo not shown) [Example 22, 2-(2-(3-amino-3-phenylpropoxy)phenyl)-N,N,3,4-tetramethyl-2H-pyrazolo[3,4-d]pyridazin-7-amine]",,
> 500,500 to 5000,"CNCCC(Oc1cc(Br)ccc1-n1nc2c(N(C)C)nnc(C)c2c1C)c1ccccc1 (stereo not shown) [Example 25, 2-(4-bromo-2-(3-(methylamino)-1-phenylpropoxy)phenyl)-N,N,3,4-tetramethyl-2H-pyrazolo[3,4-d]pyridazin-7-amine]",,
> 500,500 to 5000,"COCCNCCC(Oc1ccccc1-n1nc2c(N(C)C)nnc(C)c2c1C)c1ccccc1 (stereo not shown) [Example 26, 2-(2-(3-((2-methoxyethyl)amino)-1-phenylpropoxy)phenyl)-N,N,3,4-tetramethyl-2H-pyrazolo[3,4-d]pyridazin-7-amine]",,
